Values quoted from earlier work, collected in US20080138404A1, “EXTENDED RELEASE FORMULATIONS OF CARVEDILOL” (BIOVAIL LABORATORIES INTERNATIONAL S.R.L., priority 2006, published 2008).

Key:
[1] = system: plasma protein, primarily albumin; details: following oral administration in healthy subjects
[2] = man
[3] = not given; remark: listed apart in the source

In the case of `COc1ccccc1OCCNCC(O)COc1cccc2[nH]c3ccccc3c12` (racemic) [Carvedilol], the solubility (above a pH of 9.0) is given as under 1 µg/mL, the saturation solubility (pH 7, room temperature) is given as “about 23 μg/ml” and the “bound to plasma protein” value [1] is given as “more than 98%”. The “colonic absorption relative to oral administration” value ([2]; 25 mg carvedilol gelatin suspension) was “about 7%”, the “relative absorption in the ileum in comparison with oral administration” value [2] was 28% and the “relative absorption in the jejunum in comparison with oral administration” value [2] was 56%. For the same molecule, the “immediate release dose recovered as unchanged drug in urine” value ([3]; in vivo) was “less than 2%” and the “terminal (elimination) half-life” value ([3]; oral, immediate release) was 7 to 10 h.

For `COc1ccccc1OCCNC[C@@H](O)COc1cccc2[nH]c3ccccc3c12` [R(+) Carvedilol], the “higher plasma concentration in poor metabolisers compared to extensive metabolisers” value ([3]; in vivo) is listed as 2-3 fold and the “plasma levels of R(+) relative to S(−)” value ([3]; in vivo, po) is listed as 2-3 times.

For `COc1ccccc1OCCNC[C@H](O)COc1cccc2[nH]c3ccccc3c12` [S(−) Carvedilol], the “increase of plasma levels in poor metabolisers” value ([3]; in vivo) is given as 20-25%.
